Consider twelve molecules from patent publication US20100249179A1, “Farnesoid X Receptor Agonists” (SMITHKLINE BEECHAM CORPORATION, priority 2007, published 2010).

For this test, the target named is T1, Human FXRα Ligand Binding Domain (Homo sapiens, UniProt Q96RI1).
T1 construct: polyhistidine (pRSET-A vector leader) (N); made in house; host or cells: E. coli BL21 (DE3), pRSET-A vector
T1 sequence (Q96RI1 237-472 isoform Q96RI1-2): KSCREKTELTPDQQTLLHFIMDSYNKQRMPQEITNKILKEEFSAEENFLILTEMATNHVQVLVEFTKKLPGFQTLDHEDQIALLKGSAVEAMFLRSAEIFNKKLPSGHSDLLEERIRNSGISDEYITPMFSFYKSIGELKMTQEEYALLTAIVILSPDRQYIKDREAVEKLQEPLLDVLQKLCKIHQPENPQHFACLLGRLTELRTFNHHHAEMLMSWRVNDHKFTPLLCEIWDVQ
The experiment in a line: FXR Cofactor Binding Assay (time resolved fluorescence, SRC-1 peptide recruitment). The following applies: class symbols; read-out: Activity (pEC50) (converted). The class given is biochemical. The source says: Determination of a ligand mediated cofactor peptide interaction to quantify ligand binding to the nuclear receptor Farnesoid X Receptor (FXR). The method measures the ability of putative ligands to modulate the interaction between the purified bacterial expressed FXRα ligand binding domain (LBD) and a synthetic biotinylated peptide based on residues 676-700 of steroid receptor coactivator-1 (SRC-1) (LXXLL-containing domain-2 where L is the amino acid leucine and X indicates any other amino acid (LCD2), 676-700). The sequence of the SRC-1 peptide used is as published in Iannone, M. A., et al., 2001 Cytometry 44:326-337 where the N-terminus was biotinylated (B) and the C-terminus was amidated. Detection of the associated complex was measured by time resolved fluorescence (TRF). The purified LBD of FXR was labeled with biotin then mixed with stoichiometric amounts of allophycocyanin (APC) labeled streptavidin (Molecular Probes). The biotinylated peptide was then mixed with a ½ stoichiometric amount of europium labeled streptavidin (Wallac Inc). Each was then blocked with a 5 fold excess of biotin and allowed to equilibrate for 15 min. Equimolar amounts of receptor and peptide were mixed together and were allowed to equilibrate for at least 30 min prior to the addition to either a variable or constant concentrations of the sample for which the affinity is to be determined. After equilibration, the time-resolved fluorescent signal was quantitated using a fluorescent plate reader. The affinity of the test compound was estimated from a plot of fluorescence versus concentration of test compound added.
A basal level of FXR: peptide formation is observed in the absence of added ligand. Ligands that promote the complex formation induce a concentration-dependent increase in time-resolved fluorescent signal. Compounds which bind equally well to both monomeric FXR and to the FXR: peptide complex would be expected to give no change in signal, whereas ligands which bind preferentially to the monomeric receptor would be expected to induce a concentration-dependent decrease in the observed signal.
Advance Preparation: Human Farnesoid X Receptor α Ligand Binding Domain Human FXRα Ligand Binding Domain (FXRα LBD) was expressed in E. coli strain BL21 (DE3) as an amino-terminal polyhistidine tagged fusion protein. Expression was under the control of an isopropyl-β-D-thiogalactopyranoside (IPTG) inducible T7 promoter. DNA encoding this recombinant protein is subcloned into the pRSET-A expression vector (Invitrogen). The coding sequence of Human FXRα LBD was derived from Genbank accession number U 68233 (amino acids 237 to 472).
Ten-liter fermentation batches were grown in Rich PO4 media with 0.1 mg/mL Ampicillin at 25° C. for 12 hours, cooled to 9° C. and held at that temperature for 36 hours to a density of OD600=14. At this cell density, 0.25 mM IPTG is added and induction proceeded for 24 hours at 9° C., to a final OD600=16. Cells are harvested by centrifugation (20 minutes, 3500× gravity, 4° C.), and concentrated cell slurries were stored in phosphate buffered saline (PBS) at […].
Routinely, 30-40 g cell paste (equivalent to 2-3 liters of the fermentation batch) was resuspended in 200-250 mL Tris buffered saline (TBS), pH 7.2 (25 mM Tris-hydroxymethylamino methane (Tris), 150 mM sodium chloride). Cells were lysed by passing 3 times through a French Press and cell debris was removed by centrifugation (30 minutes, 20,000× gravity, 4° C.). The cleared supernatant was filtered through course pre-filters, and TBS, pH 7.2, 500 mM imidazole was added to obtain a final imidazole concentration of 50 mM. This lysate was loaded onto a column (6×8 cm) packed with Sepharose [Ni^++ charged] Chelation resin (Pharmacia) and pre-equilibrated with TBS pH 7.2/50 mM imidazole. After washing to baseline absorbance with equilibration buffer, the column was washed with one column volume of TBS pH 7.2 containing 90 mM imidazole. […]
For `CC(C)c1onc(-c2c(Cl)cccc2Cl)c1COc1ccc(-c2ccc3[nH]c(C(=O)O)cc3c2)cc1` [Example 1, 5-[4-({[3-(2,6-Dichlorophenyl)-5-(1-methylethyl)-4-isoxazolyl]methyl}oxy)phenyl]-1H-indole-2-carboxylic Acid], the EC50 was below 0.1 µM.

`CC(C)c1onc(-c2c(Cl)cccc2Cl)c1COc1ccc(-c2ccc3c(c2)C(C(=O)O)CC3)cc1` (stereo not drawn) [Example 2, 6-[4-({[3-(2,6-Dichlorophenyl)-5-(1-methylethyl)-4-isoxazolyl]methyl}oxy)phenyl]-2,3-dihydro-1H-indene-1-carboxylic Acid]: the EC50 was 0.102 to 1 µM.

In the case of `CC(C)c1onc(-c2c(Cl)cccc2Cl)c1COc1ccc(-c2ccc3c(C(=O)O)c[nH]c3c2)cc1` [Example 3, 6-[4-({[3-(2,6-Dichlorophenyl)-5-(1-methylethyl)-4-isoxazolyl]methyl}oxy)phenyl]-1H-indole-3-carboxylic Acid], the EC50 is below 0.1 µM.

As to `CC(C)c1onc(-c2c(Cl)cccc2Cl)c1COc1ccc(-c2ccc3oc(C(=O)O)cc3c2)cc1` [Example 4, 5-[4-({[3-(2,6-Dichlorophenyl)-5-(1-methylethyl)-4-isoxazolyl]methyl}oxy)phenyl]-1-benzofuran-2-carboxylic Acid], the EC50 is below 0.1 µM.

Regarding `CC(C)c1onc(-c2c(Cl)cccc2Cl)c1COc1ccc(-c2ccc3cc(C(=O)O)[nH]c3c2)cc1` [Example 5, 6-[4-({[3-(2,6-Dichlorophenyl)-5-(1-methylethyl)-4-isoxazolyl]methyl}oxy)phenyl]-1H-indole-2-carboxylic Acid], the EC50 is 0.102 to 1 µM.

Turning to `CC(C)c1onc(-c2c(Cl)cccc2Cl)c1COc1ccc(-c2ccc3c(c2)CC(C(=O)O)C3)cc1` (stereo not drawn) [Example 6, 5-[4-({[3-(2,6-Dichlorophenyl)-5-(1-methylethyl)-4-isoxazolyl]methyl}oxy)phenyl]-2,3-dihydro-1H-indene-2-carboxylic Acid], the EC50 is 0.102 to 1 µM.

Consider `CC(C)c1onc(-c2c(Cl)cccc2Cl)c1COc1ccc(-c2ccc3c(c2)CCC3(O)C(=O)O)cc1` (stereo not drawn) [Example 7, 5-[4-({[3-(2,6-Dichlorophenyl)-5-(1-methylethyl)-4-isoxazolyl]methyl}oxy)phenyl]-1-hydroxy-2,3-dihydro-1H-indene-1-carboxylic Acid], for which the EC50 is 0.102 to 1 µM.

With `CC(C)c1onc(-c2c(Cl)cccc2Cl)c1COc1ccc(-c2ccc3c(C(=O)O)n[nH]c3c2)cc1` [Example 8, 6-[4-({[3-(2,6-Dichlorophenyl)-5-(1-methylethyl)-4-isoxazolyl]methyl}oxy)phenyl]-1H-indazole-3-carboxylic Acid], the EC50 was 1.02 to 10 µM.

Consider `CC(C)c1onc(-c2c(Cl)cccc2Cl)c1COc1ccc(-c2csc3ccc(C(=O)O)cc23)cc1` [Example 9, 3-[4-({[3-(2,6-Dichlorophenyl)-5-(1-methylethyl)-4-isoxazolyl]methyl}oxy)phenyl]-1-benzothiophene-5-carboxylic Acid], for which the EC50 is 1.02 to 10 µM.

For the molecule `CC(C)c1onc(-c2c(Cl)cccc2Cl)c1COc1ccc(-c2ccc3sc(C(=O)O)cc3n2)cc1` [Example 10, 5-[4-({[3-(2,6-Dichlorophenyl)-5-(1-methylethyl)-4-isoxazolyl]methyl}oxy)phenyl]thieno[3,2-b]pyridine-2-carboxylic Acid], the EC50 is 0.102 to 1 µM.

Regarding `CC(C)c1onc(-c2c(Cl)cccc2Cl)c1COc1ccc(-c2ccc3c(C(=O)O)csc3c2)cc1` [Example 11, 6-[4-({[3-(2,6-Dichlorophenyl)-5-(1-methylethyl)-4-isoxazolyl]methyl}oxy)phenyl]-1-benzothiophene-3-carboxylic Acid], the EC50 was below 0.1 µM.

Take `CC(C)c1onc(-c2c(Cl)cccc2Cl)c1COc1ccc(-c2ccc3sc(C(=O)O)cc3c2)cc1` [Example 12, 5-[4-({[3-(2,6-Dichlorophenyl)-5-(1-methylethyl)-4-isoxazolyl]methyl}oxy)phenyl]-1-benzothiophene-2-carboxylic Acid]: the EC50 was 0.102 to 1 µM.
